Results: patent US6949528B1, “Compositions containing lysophosphatidic acids which inhibit apoptosis and uses thereof” (priority 1998, dated 2005)

Legend:
Type in all cases: cell-based
C3H/10T1/2 cells [1] = assay: Anti-apoptotic activity assay: serum deprivation of C3H/10T1/2 cells; settings: for Maximum effect relative to 18:1 LPA: Toxic / lowest concentration at which cytotoxic effects were observed (column Concentration for Max Effect): C3H/10T1/2 cells; for lowest concentration at which cytotoxic effects were observed (column Concentration for Max Effect): compounds exhibiting toxicity; for Concentration for Max Effect / Maximum effect relative to 18:1 LPA / Emax: serum-deprived C3H/10T1/2 cells, 24 hours of treatment; for Emax: Mus musculus, read-out: Maximum effect relative to 18:1 LPA
Text: In order to determine the […] of the claimed invention, the following method of analysis was used. The cell assay is described in detail in U.S. Pat. Nos. 5,637,486, 5,620,888, and 5,681,703, and Tomei et al. (1993) Proc Natl. Aci. 90:853-857. Briefly, mouse fibroblast C3H/10T1/2 cells (clone 8) were obtained from ATCC (Rockville, Md.) and were maintained in exponential growth phase in which the cell cycle is randomly distributed and no cells are arrested in G0, and in quiescence. Exponential growth phase was assured by seeding at 2000 cells per 1 ml (5 ml for 60 mm culture plate) five days prior to the beginning of the experiment. Assays were performed on cells only up to passage 15. At T=0, cultures were transferred to serum-free medium, as an appropriate stimulus, and seed extracts were added. Controls included 10^−7 and 5×10^−8 M 12-O-tetradecanoyl phorbol-13-acetate (TPA) to ensure the responsiveness of the cell culture. The samples were added to serum free medium and sterile filtered prior to addition to the cultures. Assays were performed in triplicate or quadruplicate. Analyses of the cell responses were made between 18 and 28 hours of serum deprivation. Two assays were performed on each cell culture plate consisting of differential cell counts.
1. All non-adherent or loosely adherent cells were removed from the culture dish and counted by appropriate techniques, typically counting by electronic particle counting instrument. These are the apoptotic cells, the serum deprived released cells (SDR), released by the action of cultivation in serum-free medium. Approximately 95% of these released cells are apoptotic as shown by both ultrastructure analysis and DNA fragmentation analysis.
2. The remaining adherent cells (ADH) were exposed to a buffered, typically pH 7.3, balanced salt solution such as a Hanks Balanced Salt Solution without calcium and magnesium salts containing 0.05% trypsin and 0.53 mM ethylene diaminetetraacetic acid (EDTA). Each culture was incubated at either room temperature or 37(C on a rocking platform to ensure uniform distribution of the trypsin reagent over the culture surface. After a standardized period of time, typically 10 minutes, the released cells were removed from each culture dish and measured by the same means as described above, typically electronic particle counting. This ADH cell count is comprised of both trypsin resistant and trypsin sensitive cells as described in U.S. Pat. Nos. 5,637,486, 5,620,888, and 5,681,703.
Anti-apoptotic activity is expressed in the following examples as the calculated concentration of material ((g/ml of media) required to save 50% of the cells released on serum free treatment.
The ability of 18:1-LPA an other LPAs to protect serum-starved cells from apoptotic death was measured using the C3H/10T1/2 cell assay, performed as described in Example 2. The effect of various compounds on the ability of lysophosphatidic acid to protect serum-starved cells from apoptotic death was also measured. Log phase cells were seeded in 60 mm Petri dishes at 175-350 cells per cm2 and maintained in Basal Medium Eagle (BME) supplemented with 10% Heat Inactivated Fetal Bovine Serum (HIFBS). On day 3 the cells were given fresh media. Treatment began on day 5 when the media containing serum was removed and replaced with the LPA mixture to be tested. After 24 hours of treatment, day 6, serum deprived released (SDR) cells (the […] cell population) and adherent (ADH) cells were separated and counted using an electronic cell counter (Coulter Corporation, Hialea, Fla.). […]

[2] = system: rat neonatal cardiomyocytes; assay: Cardiomyocyte death induced by serum/glucose deprivation; settings: serum/glucose deprivation
Method: Cardiomyocytes were prepared from hearts of day-old Sprague Dawley rats by trypsinization and mechanical disaggregation (Simpson, (1985)) Circ. Res. 56:884-894. The cells were resuspended in MEM, 1×MEM vitamins (Gibco), 5% fetal bovine serum and 50 U/ml penicillin-G and pre-plated for 30 minutes to reduce contamination of non-myocytes. The non-adherent cardiac myocytes were separated and seeded in 2 ml in 35 mm dishes at a density of 3.5×10^5 viable cells per ml. The cells were allowed to adhere for 16-24 hours in a 37° C./5% CO2 humidified incubator.
For serum deprivation, the medium was replaced with fresh serum-free RPMI, whereas serum/glucose deprivation was performed using glucose-free RPMI. The induction of cell death by adriamycin or C2-ceramide was accomplished by the addition of the agent prepared in serum-free RPMI. As a model of ischemia, cultures in serum and glucose free RPMI were placed in an airtight chamber and the latter was continuously perfused with oxygen-free gas overlay of 95% N2/5% CO2 for 8 hours at 37° C. To model reperfusion of the ischemic cells, 10% fetal bovine serum, 2 g/L of glucose were added and the cultures were returned to a normal oxygen gas overlay (37° C./5% CO2) in a humidified incubator for 16 hours.
T investigate effects of LPA, LPA plus other phospholipids, PEG or their mixtures on cell death, various combinations of these components were added to cells in serum free medium at the beginning of cytotoxic treatment.
Because cardiomyocytes are terminally differentiated non-dividing cells, viability was determined by measurement of the decrease in the relative number of adherent cells. […] Adherent cardiomyocytes were collected from culture dishes using 0.25% Trypsin/0.05% EDTA and counted on Coulter Counter ZM and Coulter Channelyzer 256.

C3H/10T1/2 cells [3] = assay: Effect of proteins on anti-apoptotic activity of soy LPA, C3H/10T1/2 cell assay; settings: for Protein +10 (g/mL Soy LPA, percent cells saved from apoptosis): 1:10 soy-LPA to protein (weight:weight); for Protein +10 (g/mL Soy LPA, percent cells saved from apoptosis) / Protein Alone (0.01%), percent cells saved from apoptosis: 24 hours serum deprivation; for Increase with LPA: difference protein + soy LPA minus protein alone; for Protein Alone (0.01%), percent cells saved from apoptosis: protein without LPA; for enhancement of the anti-apoptotic activity of soy-LPA (more than additive protection): soy-LPA added together with protein
Method: Soy derived LPA (soy-LPA) (Avanti® Polar Lipids, Inc., Alabaster, Ala.) was stored in an organic solution and was dried immediately prior to assay using a Speed Vac (Savant Instruments, Hicksville, N.Y.). Tested proteins were resuspended at 10_mg/mL in a bicarbonate buffered saline/EDTA solution (50_mM NH4HCO3, […] NaCl, 250_(M EDTA) prior to being added to dried soy-LPA at a 1:10_soy-LPA to protein (weight:weight) ratio. The mixture was then sonicated for 5 minutes using a high power 80 Watt sonication bath (Laboratory Supplies Co., Hicksville, N.Y.). Following sonication, concentrated LPA/protein mixtures were left standing for 15 minutes at room temperature prior to dilution in cell culture assay media.
The effect of various proteins on the ability of LPA to protect serum-starved cells from apoptotic death was measured using the C3H/10T1/2 cell assay, performed as described in Example 2, above. Log phase cells were seeded in 60 mm Petri dishes at 175-350 cells per cm^2 and maintained in Basal Medium Eagle (BME) supplemented with 10% fetal calf serum (Hyclone, Logan, Utah). At time zero, serum containing media was replaced with sterile filtered BME containing the LPA/protein mixture to be tested. After 24 hours of treatment, serum deprived release (SDR) cells (the apoptotic cell population) and adherent (ADH) cells were separated and counted using an electronic cell counter (Coulter Corporation, Hialea, Fla.). SDR cells were counted with the lower threshold setting at 6.3_(m and were defined as the apoptotic cells dying in response to cultivation in serum-free-media. Approximately 95% of the SDR cells are confirmed to be apoptotic as previously shown by size, ultrastructure and DNA fragmentation analysis. Adherent cells were removed by treatment with a Hanks' balanced salt solution containing 0.05% trypsin and 0.53_mM EDTA and were counted with the lower threshold setting at 11.01_(m. All samples were tested in triplicate and serum-deprived controls (BME only) were assayed at both the beginning and end of each experiment.

## CCCCCCCCCCCCCCOCC(O)COP(=O)(OC)OC (racemic) [Compound 3, Dimethyl 3-O-tetradecyl-rac-glycero-1-phosphate]
C3H/10T1/2 cells [1]
  Maximum effect relative to 18:1 LPA: Toxic: Toxic
  lowest concentration at which cytotoxic effects were observed (column Concentration for Max Effect): 30 µM

## CCCCCCCCCCOCC(O)COP(=O)(O)O (racemic) [Compound 11, 3-O-Decyl-rac-glycero-1-phosphate]
[2]; Rattus norvegicus, Cardiomyocyte, read-out: Maximum effect relative to 18:1 LPA in cardiomyocytes
  Emax: 100%
[2]
  Concentration ranges for cardiomyocyte protection: 1 to 10 µM

## CCCCCCCC/C=C\CCCCCCCCOCC(COP(=O)(OC)OC)OC (racemic) [Compound 23, Dimethyl 1-O-oleyl-2-O-methyl-rac-glycero-1-phosphate]
C3H/10T1/2 cells [1]
  Concentration for Max Effect: 30 µM
  Maximum effect relative to 18:1 LPA: 17%

## CCCCCCCC/C=C\CCCCCCCCOCC(COP(=O)(O)O)OC (racemic) [Compound 24, 3-O-Oleyl-2-O-methyl-rac-glycero-1-phosphate]
C3H/10T1/2 cells [1]
  Emax: 100%
  Concentration for Max Effect: 10 µM

## CCCCCCCC/C=C\CCCCCCCC(=O)OCC(Br)COP(=O)(O)O (racemic) [Compound 37, 3-O-Oleoyl-2-deoxy-2-bromo-rac-glycero-1-phosphate]
C3H/10T1/2 cells [1]
  Concentration for Max Effect: 30 µM
  Maximum effect relative to 18:1 LPA: 75%

## CCCCCCCC/C=C\CCCCCCCC(=O)OCC(COP(=O)(O)O)OC (racemic) [Compound 46, 3-O-Oleoyl-2-O-methyl-rac-glycero-1-phosphate]
C3H/10T1/2 cells [1]
  Emax: 75%
  Concentration for Max Effect: 30 µM

## CCCCCCCC/C=C\CCCCCCCCOCC(COP(O)(=S)OCC(COCCCCCCCC/C=C\CCCCCCCC)OC)OC (racemic) [Compound 80, Bis(3-O-oleyl-2-O-methyl-rac-glyceryl)thiophosphate]
C3H/10T1/2 cells [1]
  Concentration for Max Effect: 3 µM
  Maximum effect relative to 18:1 LPA: 100%

## CCCCCCCCCC(=O)OC[C@@H](O)COP(=O)(O)O [10:0 LPA, reference compound]
C3H/10T1/2 cells [1]
  Concentration for Max Effect: 30 µM
  Maximum effect relative to 18:1 LPA: 30%

## CCCCCCCCCCCCCC(=O)OC[C@@H](O)COP(=O)(O)O [14:0 LPA, reference compound]
C3H/10T1/2 cells [1]
  Concentration for Max Effect: 30 µM
  Maximum effect relative to 18:1 LPA: 80%

## CCCCCCCCCCCCCCCC(=O)OCC(O)COP(=O)(O)O (stereo not shown) [16:0 LPA, Palmitoyl-LPA, reference compound]
C3H/10T1/2 cells [1]; 5 (M, FIG. 5), medium alone 30%
  cells protected: about 42%
C3H/10T1/2 cells [1]; 15 (M, FIG. 5)
  cells protected: 63%
C3H/10T1/2 cells [1]
  Concentration for Max Effect: 10 µM
  Maximum effect relative to 18:1 LPA: 80%

## CCCCCCCCCCCCCCOCC1CO1 (stereo not shown) [Compound 8, 1-O-Tetradecyl-glycidol]
C3H/10T1/2 cells [1]
  Maximum effect relative to 18:1 LPA: Toxic: Toxic
  lowest concentration at which cytotoxic effects were observed (column Concentration for Max Effect): 30 µM

## CCCCCCCC/C=C\CCCCCCCC(=O)NCCOP(=O)(OC)OC [Compound 59, Dimethyl 2-amino-2-N-oleoyl-ethylphopshate]
C3H/10T1/2 cells [1]
  Maximum effect relative to 18:1 LPA: Toxic: Toxic
  lowest concentration at which cytotoxic effects were observed (column Concentration for Max Effect): 30 µM

## CCCCCCCC/C=C\CCCCCCCC(=O)NC(C)COP(=O)(O)O (stereo not shown) [Compound 61, 2-Amino-2-N-oleoyl-propyl phosphate]
C3H/10T1/2 cells [1]
  Concentration for Max Effect: 30 µM
  Maximum effect relative to 18:1 LPA: 70%

## CCCCCCCC/C=C\CCCCCCCCCCCCOP(=O)(O)O [Compound 71, Erucyl phosphate]
C3H/10T1/2 cells [1]
  Concentration for Max Effect: 100 µM
  Maximum effect relative to 18:1 LPA: 76%

## CCCCCCCCCCCCCCCCCC(=O)OCC(O)COP(=O)(O)O (stereo not shown) [stearyl-LPA, reference compound]
C3H/10T1/2 cells [1]; 5 (M, FIG. 6)
  cells protected: 63%
C3H/10T1/2 cells [1]; 15 (M, FIG. 6)
  cells protected: 65%

## Casein
C3H/10T1/2 cells [3]
  Protein +10 (g/mL Soy LPA, percent cells saved from apoptosis): 84.3%
  Increase with LPA: +20.9%
  Protein Alone (0.01%), percent cells saved from apoptosis: 63.4%
  enhancement of the anti-apoptotic activity of soy-LPA (more than additive protection): to a lesser degree

## Dimethyl 3-amino-N-oleoyl-propylphosphate [Compound 53]
C3H/10T1/2 cells [1]
  Maximum effect relative to 18:1 LPA: Toxic: Toxic
  lowest concentration at which cytotoxic effects were observed (column Concentration for Max Effect): 100 µM

## Myelin Basic Protein
C3H/10T1/2 cells [3]
  Protein +10 (g/mL Soy LPA, percent cells saved from apoptosis): 17.0%
  Increase with LPA: +0.2%
  Protein Alone (0.01%), percent cells saved from apoptosis: 16.8%
  enhancement of the anti-apoptotic activity of soy-LPA (more than additive protection): did not enhance

## Phosphatidylserine [Phosphatidylserine (PS)]
C3H/10T1/2 cells [1]; PS alone, FIG. 2
  toxicity of lipid alone: slightly toxic

## lysophosphatidyl serine [LPS, reference compound]
C3H/10T1/2 cells [1]; on a molar basis, FIG. 4
  activity relative to 18:1-LPA: approximately 50%

## phosphatidyl choline [PC]
C3H/10T1/2 cells [1]; lipids alone added to culture medium, FIG. 3
  cells survived: about 25%

B1: Myoglobin: myoglobin from horse heart (protein, UniProt P68082 2-154, looked up)
Myoglobin: GLSDGEWQQVLNVWGKVEADIAGHGQEVLIRLFTGHPETLEKFDKFKHLKTEAEMKASEDLKKHGTVVLTALGGILKKKGHHEAELKPLAQSHATKHKIPIKYLEFISDAIIHVLHSKHPGDFGADAQGAMTKALELFRNDIAAKYKELGFQG
C3H/10T1/2 cells [3]
  Protein +10 (g/mL Soy LPA, percent cells saved from apoptosis): 27.8%
  Increase with LPA: +18.5%
  Protein Alone (0.01%), percent cells saved from apoptosis: 9.3%
  enhancement of the anti-apoptotic activity of soy-LPA (more than additive protection): to a lesser degree
